Values of other authors, collected in patent publication US12633379B2, “Visible neural network framework” (priority 2020, dated 2026).

System: 39 human cancer cell lines
[1] = across the majority of cell lines tested in DeepSynergy, partners in FIG. 5F: MK2206, PD325901

COc1cc([C@@H]2c3cc4c(cc3[C@@H](O[C@@H]3O[C@@H]5CO[C@@H](C)O[C@H]5[C@H](O)[C@H]3O)[C@H]3COC(=O)[C@H]23)OCO4)cc(OC)c1O [etoposide]
Loewe synergy in combination with AKT inhibition [1]: synergized strongly
Loewe synergy in combination with MEK inhibition [1]: synergized strongly
Loewe synergy in combination with bortezomib (combined with the proteasome inhibitor bortezomib, DeepSynergy cell line panel, FIG. 12A, FIG. 5F): did not synergize
